Measured values reported in US20260027078A1, “Cyclopropane Fatty Acid Modulators Of Peroxisome Proliferator-Activated Receptors” (The Regents of the University of California, priority 2022, published 2026).

Test system: Angptl4 mRNA expression in 3T3-L1 cells
Assay: Angptl4 mRNA expression (RT-qPCR) in 3T3-L1 cells
Assay type: cell-based, murine
Details: antagonist 0, 0.1, 1 and 10 μM, against GW7647, GW501516 or rosiglitazone respectively
Procedure: To study the effect of CpFAs on the regulation of Angptl4 expression, Angptl4 mRNA expression levels were quantified by real-time qPCR in cultured murine 3T3-L1 cells. […] FIG. 7A-C show a dose-dependent response to representative CpFAs in murine 3T3-L1 cells.
3T3-L1 cell culture and PPAR activation: 3T3-LI preadipocytes were cultured in growth medium (high glucose Dulbecco's Modified Eagle Medium (DMEM) containing 10% calf serum (CS), 1× Pencillin/Streptomycin, and 1× Glutamax) and seeded in multi-well (12-or 24-well) plates. PPAR specificity of gene target activation was determined in 3T3-L1 preadipocytes using well-described agonists and antagonists for PPAR-α, PPAR-δ, or PPAR-γ. On the day of treatment, preadipocytes were serum starved in 0.25% CS in growth medium for 2-4 hours. Cells were pretreated with increasing concentrations (0, 0.1, 1 and 10 μM) of PPAR antagonists (GW6471 for PPAR-α, GSK3787 for PPARδ, and T0070907 for PPARγ) in serum starve medium. After 1 hour, selective PPAR agonists were added (GW7647 (PPAR-α), GW501516 (PPAR-δ), and rosiglitazone (PPAR-γ)) and incubated for 24 hours. Lysates were collected for RNA extraction. […] CpFA treatments (final concentrations of 37.5, 75, and 150 μM) were prepared in 0.25% serum starve media plus 3% BSA, followed by heating (55° C.) and sonicating for 30 minutes. Treatments were allowed to cool to 37° C. and then added to 3T3-L1 preadipocytes and incubated for 24 hours. Lysates for RNA isolation were collected.
Angptl4 expression analyses: RNA was isolated from cell lysates using Qiagen 96 Total RNA kit. cDNA was synthesized and plated in triplicates in 384-well plates. RT-qPCR was performed using TaqMan Fast-Advanced master mix and TaqMan reagents and primers (18S, rplp0, angplt4) and analyzed using a Thermo Fisher Scientific QuantStudio 6 Flex PCR system. Relative gene expression was analyzed using the fold difference algorithm (2∧(−ΔΔCt)) using the geomean of 2 housekeeping genes (18S, RPLPO) compared to relevant vehicle control.

| Structure (SMILES) | reversal of synthetic PPAR agonist activity on Angptl4 mRNA expression |
| --- | --- |
| O=C(Nc1ccncc1)c1cc([N+](=O)[O-])ccc1Cl [T0070907] | concentration-dependent ability |
| O=C(NCCS(=O)(=O)c1ccc(C(F)(F)F)cn1)c1ccc(Cl)cc1 [GSK3787] | concentration-dependent ability |
| CCC(=O)NC[C@H](Cc1ccc(OCCc2nc(-c3ccccc3)oc2C)cc1)N/C(C)=C\C(=O)c1ccc(C(F)(F)F)cc1 [GW6471] | concentration-dependent ability |
